Reference: US20230303613A1, “3′3′ CYCLIC DINUCLEOTIDES WITH AN ALKENYLENE” (Institute of Organic Chemistry and Biochemistry AS CR, v.v.i, priority 2020, published 2023)

Tests used:
[1] = biological target: T1, WT STING (Homo sapiens, UniProt Q86WV6, H232R); assay: Differential Scanning Fluorimetry with WT STING; format: binding; design: 8xHis (N, cleaved yes); SUMO (N, cleaved yes); made in house; host or cells: E. coli Rosetta-gami B (DE3); conditions: thermal shift vs apoprotein, 150 µM CDN, truncated human WT STING 0.1 mg/ml; for ΔTm at 150 µM: read-out: DSF ΔTm WT STING
From the text: (§1) Purified PCR products were cleaved with restriction enzymes BamHI (cat. # R0136S, NEB, Ipswich, USA) and NotI (cat. # R0189S, NEB, Ipswich, USA) and cloned into the pSUMO vector linearized with the identical enzymes.
(§2) Bacterial pellets were re-suspended in ice-cold lysis buffer containing 50 mmol.1^-1 TrisCl (cat. # T1503, Sigma Aldrich, Czech Republic) pH 8.0, 300 mmol.1^-1 NaCl, 3 mmol.1^-1 β-mercaptoethanol (cat. # M6250, Sigma Aldrich, Czech Republic), 10% glycerol (cat. # G5516, Sigma Aldrich, Czech Republic) and 20 mmol.1^-1 imidazole (cat. # I5513, Sigma Aldrich, Czech Republic) using Dounce homogenizer. DNase I (cat. # D5025, Sigma Aldrich, Czech Republic) and RNase A (cat. # R6513, Sigma Aldrich, Czech Republic) were added (final concentration 50 µg/ml) together with MgCl2 (final concentration 5 mmol.l^-1) to the homogenate and bacteria were lysed using French Press G-M™ High-Pressure Cell Press Homogenizer (1500 psi, 3 cycles). […] The resin was poured into a chromatography column, washed with 50 ml buffer A (50 mmol.1^-1 TrisCl (pH 8.0), 800 mmol.1^-1 NaCl, 3 mmol.1^-1 β-mercaptol; 10% glycerol; 20 mmol.1^-1 imidazole) and 8-His-SUMO tagged STING proteins were eluted with 15 ml buffer A containing 300 mmol.1^-1 imidazole. […] Proteins were concentrated with Amicon® Ultra-15 10 K device (cat. # UFC901008, Merck Millipore, Billerica, USA) and flash frozen in liquid N2.
(§3) 20 µL solutions of the reaction mixtures were pipetted in triplicates into 96 well optical reaction plates and thermal denaturation of samples were performed on real time PCR cycler (LightCycler® 480 Instrument II - Roche, Basel, Switzerland). The first derivative of the thermal denaturation curves was performed to calculate denaturing temperatures of STING - CDN complexes and STING apoproteins. The thermal shift for each CDN was calculated by subtracting the average denaturing temperature of STING apoprotein from the average denaturing temperature of STING CDN complex.
Target sequence in this assay (Q86WV6 140-343 H232R): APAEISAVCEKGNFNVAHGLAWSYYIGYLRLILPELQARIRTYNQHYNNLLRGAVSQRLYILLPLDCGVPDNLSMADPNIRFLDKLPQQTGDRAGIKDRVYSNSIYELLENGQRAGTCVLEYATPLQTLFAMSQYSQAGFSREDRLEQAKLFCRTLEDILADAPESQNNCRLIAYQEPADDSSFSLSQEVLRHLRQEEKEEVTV

[2] = biological target: T1, WT STING; assay: 293T WT STING standard reporter assay; format: cell-based; conditions: 293T wtSTING-FL cells; 7 hours with compound, no digitonin; ISRE firefly luciferase reporter
From the text: (§4) Two complementary oligonucleotides of the sequence […] […] […] […] […] The oligonucleotides were mixed in equal molar amounts, hybridized, and cleaved by restriction endonucleases HindIII (cat. #. R0104S, NEB, Ipswich, USA) and BglII (cat. # R0144S, NEB, Ipswich, USA). Ultimately, they were ligated into plasmid pGL4.27 (cat. # E6651, Promega, Madison, USA) linearized with the same enzymes. As result the sequence with four ISRE sites was placed upstream of the minimum promoter of firefly luciferase reporter gene.
(§5) After 5 minutes incubation at room temperature (RT), 250 µL of the mixture was added dropwise to the cells in one well. Cells were incubated 36 hours at 37° C. with 5% CO2, and then detached with 0.05% Trypsin and 0.22 g/L EDTA (both cat. # L0941, Biowest, Riverside, USA).
(§6) Transfected cells were seeded onto poly-D-lysine coated six well plates at density 50,000 cells per 1 cm^2 in DMEM medium with high glucose containing 10% heat inactivated FBS, 30 µg/mL blasticidin (cat. # ant-bl-05, InvivoGen, San Diego, USA), 0.06 mg/ml Penicillin G and 0.1 mg/ml Streptomycin Sulfate (both cat. #. L0018, Biowest, Riverside, USA). The medium was replenished every 3 - 4 days until visible colonies of cells resistant to blasticidin were formed.
(§7) Blasticidin resistant cells stably expressing WT STING were further transfected with […] plasmid following the same procedure as described above. […] Homogeneous culture of stably double transfected cells was prepared by limiting dilution of cells in 96 well plates and wells with cells were selected that originated from a single cell.
The medium was removed next day and three-fold serial dilutions of compounds in 100 µl medium were added to the cells. The plates with cells were incubated for 7 hours at 37° C. with 5% CO2. After 50 µl of the medium was removed, 30 µl of ONE-Glo^Tm Luciferase Assay System reagent (cat. # E6120, Promega, Madison, USA) was added to each well and luminescence was read on Synergy H1 (Biotek, Winooski, USA).
Target sequence in this assay (Q86WV6 whole entry H232R, the tested form may be a part): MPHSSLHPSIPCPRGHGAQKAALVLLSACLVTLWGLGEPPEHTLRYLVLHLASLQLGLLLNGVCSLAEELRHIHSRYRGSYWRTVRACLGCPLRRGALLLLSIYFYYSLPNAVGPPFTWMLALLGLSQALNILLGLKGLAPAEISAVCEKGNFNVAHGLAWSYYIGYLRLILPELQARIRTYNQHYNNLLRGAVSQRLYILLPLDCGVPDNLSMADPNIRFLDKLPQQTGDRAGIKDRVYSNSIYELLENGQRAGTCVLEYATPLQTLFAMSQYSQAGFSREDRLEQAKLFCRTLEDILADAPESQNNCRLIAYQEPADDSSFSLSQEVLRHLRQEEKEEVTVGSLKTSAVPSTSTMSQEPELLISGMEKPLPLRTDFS

[3] = biological target: T2, AQ STING (G230A-R293Q) (Homo sapiens, UniProt Q86WV6, G230A/H232R/R293Q); assay: Differential Scanning Fluorimetry with AQ STING; format: binding; conditions: thermal shift vs apoprotein, 150 µM CDN, truncated human AQ STING 0.1 mg/ml; for ΔTm at 150 µM: read-out: DSF ΔTm AQ STING
T2 construct: 8xHis (N, cleaved yes); SUMO (N, cleaved yes); made in house; host or cells: E. coli Rosetta-gami B (DE3)
T2 sequence (Q86WV6 140-343 G230A/H232R/R293Q): as the sequence (Q86WV6 140-343 H232R) above, with G91A, R154Q counted along it
From the text: as §1, §2, §3

[4] = biological target: T1, WT STING; assay: Digitonin assay using 293T wtSTING-FL reporter cells; format: cell-based; conditions: 293T wtSTING-FL cells; 30 minutes in Digitonin buffer, then 5 hours; ISRE firefly luciferase reporter
From the text: as §4, §5, §6, §7
Target sequence in this assay (Q86WV6 whole entry H232R, the tested form may be a part): as the sequence (Q86WV6 whole entry H232R, the tested form may be a part) above
The medium was removed next day and three fold serial dilutions of compounds in Digitonin buffer containing 50 mmol.l^-1 HEPES (cat. # H3375, Sigma Aldrich, Czech Republic) pH 7.0, 100 mmol.1^-1 KCl, 3 mmol.l^-1 MgCl2, 0.1 mmol.l^-1 DTT (cat. # D0632, Sigma Aldrich, Czech Republic), 85 mmol.1^-1 Sucrose (cat. # S7903, Sigma Aldrich, Czech Republic), 0.2% BSA (cat. # A2153, Sigma Aldrich, Czech Republic), 1 mmol.l^-1 ATP (cat. # A1852, Sigma Aldrich, Czech Republic), 0.1 mmol.1^-1 GTP (cat. # G8877, Sigma Aldrich, Czech Republic), and 10 µg/mL Digitonin A (cat. # D141, Sigma Aldrich, Czech Republic) were added to the cells. The buffer was removed after 30 minutes incubation at 37° C. with 5% CO2, the cells were washed once with 100 µl of cultivation medium, and 100 µl of medium was added to each well. The plates with cells were incubated for 5 hours at 37° C. with 5% CO2, 50µl of the medium was removed and 30 µl of ONE-Glo^Tm Luciferase Assay System reagent (cat. # E6120, Promega, Madison, USA) was added to each well. Luminescence was read on Synergy H1 (Biotek, Winooski, USA).

Row | DSF ΔTm WT STING [1] | EC50 [2] | DSF ΔTm AQ STING [3] | EC50 [4] | ΔTm at 150 µM [1] | ΔTm at 150 µM [3] | SMILES
1 | 11.5 °C | 10.2 µM | 19.4 °C | 0.03 µM |  |  | Nc1nc2c(ncn2[C@@H]2O[C@@H]3COP(=O)(O)O[C@@H]4[C@H](O)[C@@H](COP(=O)(O)O[C@@H]2[C@@H]3O)O[C@H]4n2cnc3c(N)ncnc32)c(=O)[nH]1 [2′2′-cGAMP, reference compound]
2 |  |  |  | 16.1 µM | 0.5 °C | 1.1 °C | CSc1ncnc2c1ncn2[C@@H]1O[C@@H]2COP(=O)(O)O[C@H]3[C@@H](O)[C@H](n4cnc5c(=O)[nH]c(N)nc54)O[C@@H]3/C=C\P(=O)(O)O[C@H]2[C@H]1O (stereo in doubt) [Compound 70, (1S,6R,8R,9R,10S,15R,17R,18R)-17-(2-amino-6-oxo-6,9-dihydro-1H-purin-9-yl)-3,9,12,18-tetrahydroxy-8-[6-(methylsulfanyl)-9H-purin-9-yl]-2,4,7,1 1,16-pentaoxa-3λ^5,12λ^5-diphosphatricyclo[13.3.0.0^6,^10]octadec-13-ene-3,12-dione]
3 |  |  |  | 0.5 µM | 4.1 °C | 10.6 °C | Nc1nc2c(ncn2[C@@H]2O[C@@H]3/C=C/P(=O)(O)O[C@H]4[C@@H](F)[C@H](n5cnc6c(=O)[nH]c(N)nc65)O[C@@H]4COP(=O)(O)O[C@H]3[C@H]2F)c(=O)[nH]1 [Compound 56, (1R,6R,8R,9R,10R,13E,15R,17R,18R)-8,17-bis(2-amino-6-oxo-6,9-dihydro-1H-purin-9-yl)-9,18-difluoro-3,12-dihydroxy-2,4,7,11,16-pentaoxa-3λ^5,12λ^5-diphosphatricyclo[13.3.0.0^6,^10]octadec-13-ene-X3.12-dione]
4 |  |  |  | 15 µM | 0.5 °C | 1.7 °C | Nc1nc2c(ncn2[C@@H]2O[C@@H]3/C=C\P(=O)(O)O[C@H]4C[C@H](n5cnc6c(N)nc(F)nc65)O[C@@H]4COP(=O)(O)O[C@H]3[C@H]2O)c(=O)[nH]1 [Compound 66, (1S,6R,8R,10S,13Z,15R,17R,18R)-8-(6-amino-2-fluoro-9H-purin-9-yl)-17-(2-amino-6-oxo-6,9-dihydro-1H-purin-9-yl)-3,12,18-trihydroxy-2,4,7,11,16-pentaoxa-3λ^5,12λ^5-diphosphatricyclo[13.3.0.0^6,^10]octadec-13-ene-3,12-dione]
5 |  |  |  | 32.8 µM | 1.2 °C | 3.5 °C | Nc1nc(N)c2ncn([C@@H]3O[C@@H]4COP(=O)(O)O[C@H]5[C@@H](O)[C@H](n6cnc7c(=O)[nH]c(N)nc76)O[C@@H]5/C=C\P(=O)(O)O[C@H]4[C@H]3O)c2n1 (stereo in doubt) [Compound 69, (1S,6R,8R,9R,10S,15R,17R,18R)-17-(2-amino-6-oxo-6,9-dihydro-1H-purin-9-yl)-8-(2,6-diamino-9H-purin-9-yl)-3,9,12,18-tetrahydroxy-2,4,7,11,16-pentaoxa-3λ^5,12λ^5-diphosphatricyclo[13.3.0.0^6,^10]octadec-13-ene-3,12-dione]
6 |  |  |  | 6.4 µM | 0.3 °C | 2.9 °C | Nc1nc2c(ncn2[C@@H]2O[C@@H]3/C=C\P(=O)(O)O[C@H]4[C@@H](N)[C@H](n5cnc6c(N)ncnc65)O[C@@H]4COP(=O)(O)O[C@H]3[C@H]2O)c(=O)[nH]1 [Compound 67, (1S,6R,8R,9R,10S,13Z,15R,17R,18R)-9-amino-17-(2-amino-6-oxo-6,9-dihydro-1H-purin-9-yl)-8-(6-amino-9H-purin-9-yl)-3,12,18-trihydroxy-2,4,7,11,16-pentaoxa-3λ^5,12λ^5-diphosphatricyclo[13.3.0.0^6,^10]octadec-13-ene-3,12-dione]
7 | 2.6 °C |  | 7.7 °C | 5.8 µM |  |  | Nc1nc2c(ncn2[C@@H]2O[C@@H]3COP(=O)(O)O[C@H]4[C@@H](O)[C@H](n5cnc6c(=O)[nH]c(N)nc65)O[C@@H]4COP(=O)(O)O[C@H]3[C@H]2O)c(=O)[nH]1 [3′3′c-di-GMP, 3′3′-c-di-GMP, reference compound]
8 |  |  |  | 0.78 µM | 1.9 °C | 8.6 °C | Nc1nc2c(ncn2[C@@H]2O[C@@H]3/C=C/P(=O)(O)O[C@H]4C[C@H](n5cnc6c(N)ncnc65)O[C@@H]4COP(=O)(O)O[C@H]3[C@H]2O)c(=O)[nH]1 [Compound 55, (1S,6R,8R,10S,13E,15R,17R,18R)-17-(2-amino-6-oxo-6,9-dihydro-1H-purin-9-yl)-8-(6-amino-9H-purin-9-yl)-3,12,18-trihydroxy-2,4,7,11,16-pentaoxa-3λ^5,12λ^5-diphosphatricyclo[13.3.0.0^6,^10]octadec-13-ene-3,12-dione]
